{"source": "patent US20250345391A1", "about": "“COMPOSITIONS AND METHODS FOR THE TREATMENT OF SEPSIS” (Children's Hospital Medical Center, priority 2022, published 2025)", "test_system": "syndecan-1", "experiment": "Plasma syndecan-1 (glycocalyx damage) after CLP sepsis, ELISA", "format": "in vivo, Male C57BL/6 mice", "details": "6 h after CLP; colivelin 100 or 200 μg/kg i.p. at 1 h after CLP; vs vehicle; dose-independent", "source_text": "The investigation conformed to the National Institutes of Health Guide for the Care and Use of Laboratory Animals (Eighth Edition, 2011) and was approved by the Institutional Animal Care and Use Committee of the Cincinnati Children's Hospital Medical Center. Male C57BL/6 mice were obtained from Charles River Laboratories International, Inc. (Wilmington, MA). Mice were used at 3-5 months of age to mimic the equivalent for human ranges from 20-25 years (29). Male mice only were chosen for the experimentation to avoid interference from female hormonal fluctuations in sepsis responses during the estrous cycle. Mice were housed in pathogen-free conditions under a 10-h light/14-h dark cycle with free access to food and water. […] Plasma levels of tumor necrosis factor-α (TNFα), interleukin (IL)-1β, IL-6, IL-10, keratinocytes-derived chemokine (KC), and macrophage inflammatory proteins (MIP-1α) were used as indices of the systemic inflammatory response and were evaluated by a commercially available multiplex array system (Milliplex, Millipore Corporation, Billerica, MA). Plasma levels of endoglin, intercellular adhesion molecule-1 (ICAM-1), P-selectin, proprotein convertase subtilisin/kexin type 9 (PCSK9), and angiopoietin-2 (Ang 2) were used as indices of endothelial injury and were evaluated by a commercially available multiplex array system (R&D Systems, Minneapolis, MN). […]"}
{"substance": "Colivelin (SALLRSIPAPAGASRLLLLTGEIDLP)", "values": [{"measurement": "Levels of plasma syndecan-1", "result": "significantly decreased"}]}
